Values of other authors as cited in PubChem BioAssay AID1259409 (Chemical Carcinogenesis Research Information System (CCRIS), 2018).
*1 amine or outer side, *2 acyl side, *3 side chain or, on linkers, in order; H or OH if unused. Where a SMILES comes first, the peptide text is derived from it. CO = O=C([*:1])[*:2]

Tested on: rodent chemically induced tumor inhibition, incidence and multiplicity
Assay: CCRIS tumor inhibitor studies
Conditions: Promoter: NONE USED

Row | Compound | tumour outcome (control, treated, inhibition, significance) (Carcinogen: 1,2-DIMETHYLHYDRAZINE, 540-73-8, Dose [Inhibitor]: 0, 100 MG/KG BW 1/D FOR FIRST 8 WK THEN 1/2 D FOR 19 WK (STUDY DURATION: 27 WK), Route [Inhibitor]: GAVAGE, Species: RAT, Strain/Sex: WISTAR/MALE, Target Tissue: Type of Lesion: COLON: TUMOR, Dose [Carcinogen]: 20 MG/KG BW 1/WK FOR 15 WK) | tumour outcome (control, treated, inhibition, significance) (Carcinogen: DIETHYLNITROSAMINE, 55-18-5, N-METHYL-N-NITROSOUREA, 684-93-5, N,N-DIBUTYLNITROSAMINE, 924-16-3, Carcinogen: DIETHYLNITROSAMINE, 55-18-5, N-METHYL-N-NITROSOUREA, 684-93-5, N,N-DIBUTYLNITROSAMINE, 924-16-3, Dose [Inhibitor]: 0, 0.05% IN DIET BEGINNING POST CARCINOGEN TREATMENT AND CONTINUING TO WK 40 (STUDY DURATION: 40 WK), Route [Inhibitor]: ORAL, Species: RAT, Strain/Sex: F344/MALE, Target Tissue: Type of Lesion: LUNG: ADENOMA, Dose [Carcinogen]: 100 MG/KG DIETHYLNITROSAMINE ONCE FOLLOWED BY 20 MG/KG N-METHYL-N-NITROSOUREA ON D 2, 5, 8 AND 11 THEN 0.05% N-N-DIBUTYL) | tumour outcome (control, treated, inhibition, significance) (Carcinogen: DIETHYLNITROSAMINE, 55-18-5, N-METHYL-N-NITROSOUREA, 684-93-5, N,N-DIBUTYLNITROSAMINE, 924-16-3, Carcinogen: DIETHYLNITROSAMINE, 55-18-5, N-METHYL-N-NITROSOUREA, 684-93-5, N,N-DIBUTYLNITROSAMINE, 924-16-3, Dose [Inhibitor]: 0, 0.05% IN DIET BEGINNING POST CARCINOGEN TREATMENT AND CONTINUING TO WK 40 (STUDY DURATION: 40 WK), Route [Inhibitor]: ORAL, Species: RAT, Strain/Sex: F344/MALE, Target Tissue: Type of Lesion: LUNG: CARCINOMA, Dose [Carcinogen]: 100 MG/KG DIETHYLNITROSAMINE ONCE FOLLOWED BY 20 MG/KG N-METHYL-N-NITROSOUREA ON D 2, 5, 8 AND 11 THEN 0.05% N-N-DIBUTYL) | tumour outcome (control, treated, inhibition, significance) (Carcinogen: DIETHYLNITROSAMINE, 55-18-5, N-METHYL-N-NITROSOUREA, 684-93-5, N,N-DIBUTYLNITROSAMINE, 924-16-3, Carcinogen: DIETHYLNITROSAMINE, 55-18-5, N-METHYL-N-NITROSOUREA, 684-93-5, N,N-DIBUTYLNITROSAMINE, 924-16-3, Dose [Inhibitor]: 0, 0.05% IN DIET BEGINNING POST CARCINOGEN TREATMENT AND CONTINUING TO WK 40 (STUDY DURATION: 40 WK), Route [Inhibitor]: ORAL, Species: RAT, Strain/Sex: F344/MALE, Target Tissue: Type of Lesion: THYROID: ADENOMA, Dose [Carcinogen]: 100 MG/KG DIETHYLNITROSAMINE ONCE FOLLOWED BY 20 MG/KG N-METHYL-N-NITROSOUREA ON D 2, 5, 8 AND 11 THEN 0.05% N-N-DIBUTYL) | tumour outcome (control, treated, inhibition, significance) (Carcinogen: DIETHYLNITROSAMINE, 55-18-5, N-METHYL-N-NITROSOUREA, 684-93-5, N,N-DIBUTYLNITROSAMINE, 924-16-3, Carcinogen: DIETHYLNITROSAMINE, 55-18-5, N-METHYL-N-NITROSOUREA, 684-93-5, N,N-DIBUTYLNITROSAMINE, 924-16-3, Dose [Inhibitor]: 0, 0.05% IN DIET BEGINNING POST CARCINOGEN TREATMENT AND CONTINUING TO WK 40 (STUDY DURATION: 40 WK), Route [Inhibitor]: ORAL, Species: RAT, Strain/Sex: F344/MALE, Target Tissue: Type of Lesion: THYROID: CARCINOMA, Dose [Carcinogen]: 100 MG/KG DIETHYLNITROSAMINE ONCE FOLLOWED BY 20 MG/KG N-METHYL-N-NITROSOUREA ON D 2, 5, 8 AND 11 THEN 0.05% N-N-DIBUTYL) | tumour outcome (control, treated, inhibition, significance) (Carcinogen: DIETHYLNITROSAMINE, 55-18-5, N-METHYL-N-NITROSOUREA, 684-93-5, N,N-DIBUTYLNITROSAMINE, 924-16-3, Carcinogen: DIETHYLNITROSAMINE, 55-18-5, N-METHYL-N-NITROSOUREA, 684-93-5, N,N-DIBUTYLNITROSAMINE, 924-16-3, Dose [Inhibitor]: 0, 0.05% IN DIET BEGINNING POST CARCINOGEN TREATMENT AND CONTINUING TO WK 40 (STUDY DURATION: 40 WK), Route [Inhibitor]: ORAL, Species: RAT, Strain/Sex: F344/MALE, Target Tissue: Type of Lesion: URINARY BLADDER: CARCINOMA, Dose [Carcinogen]: 100 MG/KG DIETHYLNITROSAMINE ONCE FOLLOWED BY 20 MG/KG N-METHYL-N-NITROSOUREA ON D 2, 5, 8 AND 11 THEN 0.05% N-N-DIBUTYL) | tumour outcome (control, treated, inhibition, significance) (Carcinogen: DIETHYLNITROSAMINE, 55-18-5, N-METHYL-N-NITROSOUREA, 684-93-5 N,N-DIBUTYLNITROSAMINE, 924-16-3, Carcinogen: DIETHYLNITROSAMINE, 55-18-5, N-METHYL-N-NITROSOUREA, 684-93-5 N,N-DIBUTYLNITROSAMINE, 924-16-3, Dose [Inhibitor]: 0, 0.05% IN DIET BEGINNING POST CARCINOGEN TREATMENT AND CONTINUING TO WK 40 (STUDY DURATION: 40 WK), Route [Inhibitor]: ORAL, Species: RAT, Strain/Sex: F344/MALE, Target Tissue: Type of Lesion: URINARY BLADDER: PAPILLOMA, Dose [Carcinogen]: 100 MG/KG DIETHYLNITROSAMINE ONCE FOLLOWED BY 20 MG/KG N-METHYL-N-NITROSOUREA ON D 2, 5, 8 AND 11 THEN 0.05% N-N-DIBUTYL) | tumour outcome (control, treated, inhibition, significance) (Carcinogen: 1,2,3,4,5,6-HEXACHLOROCYCLOHEXANE, 319-84-6, Dose [Inhibitor]: 0.1% IN DIET FOR 12 WK POST CARCINOGEN TREATMENT (STUDY DURATION: 48 WK), Route [Inhibitor]: ORAL, Species: MOUSE, Strain/Sex: DDY/MALE, Target Tissue: Type of Lesion: LIVER: NODULAR HYPERPLASIA, Dose [Carcinogen]: 500 PPM IN DIET FOR 24 WK) | tumour outcome (control, treated, inhibition, significance) (Carcinogen: N-BUTYL-N-(4-HYDROXY-BUTYL)NITROSAMINE, 3817-11-6, Dose [Inhibitor]: 0.1% IN DIET FOR 32 WK POST CARCINOGEN TREATMENT (STUDY DURATION: 40 WK), Route [Inhibitor]: ORAL, Species: MOUSE, Strain/Sex: ICR/MALE, Target Tissue: Type of Lesion: URINARY BLADDER: CANCER, Dose [Carcinogen]: 0.05% IN DRINKING WATER FOR FIRST 8 WK THEN FED BASAL DIET CONTAINING INHIBITOR) | tumour outcome (control, treated, inhibition, significance) (Carcinogen: N-BUTYL-N-(4-HYDROXY-BUTYL)NITROSAMINE, 3817-11-6, Dose [Inhibitor]: 0.1% IN DIET FOR 32 WK POST CARCINOGEN TREATMENT (STUDY DURATION: 40 WK), Route [Inhibitor]: ORAL, Species: MOUSE, Strain/Sex: ICR/MALE, Target Tissue: Type of Lesion: URINARY BLADDER: PAPILLARY OR NODULAR HYPERPLASIA, Dose [Carcinogen]: 0.05% IN DRINKING WATER FOR FIRST 8 WK THEN FED BASAL DIET CONTAINING INHIBITOR) | tumour outcome (control, treated, inhibition, significance) (Carcinogen: URETHANE, 51-79-6, Dose [Inhibitor]: 11 INJECTIONS (100 UG/G BW FOR EACH) AT 12 HR INTERVALS FROM 0-120 HR AFTER URETHANE TREATMENT (STUDY DURATION: 5 MO), Route [Inhibitor]: INTRAPERITONEAL, Species: MOUSE, Strain/Sex: ICR/JCI/FEMALE, Target Tissue: Type of Lesion: LUNG: TUMOR, Dose [Carcinogen]: 1.0 MG/G BW ONCE) | tumour outcome (control, treated, inhibition, significance) (Carcinogen: URETHANE, 51-79-6, Dose [Inhibitor]: 11 INJECTIONS (100 UG/G BW FOR EACH) AT 12 HR INTERVALS FROM 240-360 HR AFTER URETHANE TREATMENT (STUDY DURATION: 5 MO), Route [Inhibitor]: INTRAPERITONEAL, Species: MOUSE, Strain/Sex: ICR/JCI/FEMALE, Target Tissue: Type of Lesion: LUNG: TUMOR, Dose [Carcinogen]: 1.0 MG/G BW ONCE)
1 | O=C(O)C[CH2][Ge](=[O])[O][Ge](=[O])[CH2]CC(=O)O | 36/36 (100%), 33/35 (94%), 6%, not significant | 9/16 (56%), 1/19 (5%), 91%, p<0.001 | 3/16 (19%), 0/19 (0%), 100%, not calculated | 8/16 (50%), 2/19 (11%), 78%, p<0.02 | 2/16 (13%), 1/19 (5%), 62%, not calculated | 1/16 (6%), 0/19 (0%), 100%, not calculated | 4/16 (25%), 1/19 (5%), 80%, not calculated |  |  |  |  | 
2 | CC(C)[C@H](NC(=O)[C@H](CCCN=C(N)N)NC(=O)N[C@@H](Cc1ccccc1)C(=O)O)C(=O)N[C@H](C=O)CCCN=C(N)N ({Phe-CO}-Arg-Val-Arg-aldehyde) |  |  |  |  |  |  |  | 1/13 (7%), 2/15 (13%), -86%, not significant | 1/13 (8%), 3/15 (20%), -150%, not significant | 4/13 (31%), 8/15 (53%), -71%, not significant | 49/53 (92%), 38/46 (83%), 10%, not significant | 49/53 (92%), 34/45 (76%), 17%, p<0.05
